Legend:
[1] = target: T1, GST tagged LXRalpha LBD (ligand binding domain) (Homo sapiens, UniProt Q13133); assay: LanthaScreen TR-FRET Liver X Receptor Coactivator Assay, LXR alpha-LBD; format: biochemical; details: relative to reference T0901317; for LXR alpha IP (nM) / EC50: Inflection Point (potency), co-activator recruitment; for Emax: read-out: LXR alpha act @ max dose (%); for EC50: read-out: LXR alpha IP
T1 construct: purchased Invitrogen pv4655
T1 sequence (Q13133 209-447 limits assumed): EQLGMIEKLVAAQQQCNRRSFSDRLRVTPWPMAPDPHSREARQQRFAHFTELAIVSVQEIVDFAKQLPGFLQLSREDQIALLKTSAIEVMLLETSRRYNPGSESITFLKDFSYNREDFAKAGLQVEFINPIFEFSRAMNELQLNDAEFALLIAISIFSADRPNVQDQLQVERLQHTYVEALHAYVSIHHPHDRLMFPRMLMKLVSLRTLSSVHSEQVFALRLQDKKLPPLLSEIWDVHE
Experimental: (§1) Potency (Inflection Point, IP) and efficacy (Emax) are evaluated via compound-induced co-activator recruitment to glutathione-S-transferase (GST) tagged LXRbeta and LXRalpha LBD (ligand binding domain) proteins in relation to reference dual agonist compound T0901317 (N-(2,2,2-Trifluoroethyl)-N-[4-[2,2,2-trifluoro-1-hydroxy-1-(trifluoromethyl)ethyl] phenyl]benzenesulfonamide) using the LanthaScreen™ TR-FRET Liver X Receptor Coactivator Assays according to manufacturer's instructions (Invitrogen catalog number pv4658.pps and pv4655). While running the LanthaScreen™ TR-FRET Liver X Receptor Coactivator Assay, LXR alpha-LBD or LXR beta-LBD was added to ligand test compounds followed by addition of a mixture of a fluorescein-labelled coactivator peptide and terbium-conjugated anti-GST antibody. After an incubation period at room temperature, TR-FRET (time-resolved fluorescence resonance energy transfer) was measured using a filter-based instrument capable of TR-FRET, e.g. PerkinElmer Envision.

[2] = target: T2, GST tagged LXRbeta LBD (ligand binding domain) (Homo sapiens, UniProt P55055); assay: LanthaScreen TR-FRET Liver X Receptor Coactivator Assay, LXR beta-LBD; format: biochemical; details: relative to reference T0901317; for EC50: Inflection Point (potency), co-activator recruitment, read-out: LXR beta IP; for Emax: read-out: LXR beta act @ max dose (%)
T2 construct: purchased Invitrogen pv4658.pps
T2 sequence (P55055 222-460 limits assumed): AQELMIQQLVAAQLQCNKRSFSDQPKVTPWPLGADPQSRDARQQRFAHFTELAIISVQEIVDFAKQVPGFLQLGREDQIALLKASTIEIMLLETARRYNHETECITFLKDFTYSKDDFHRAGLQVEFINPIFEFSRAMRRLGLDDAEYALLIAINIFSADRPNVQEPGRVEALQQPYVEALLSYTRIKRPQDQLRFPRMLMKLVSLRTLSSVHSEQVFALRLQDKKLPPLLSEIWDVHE
Experimental: as §1

[3] = activity at max dose (efficacy)

Question: With `CCC1CCN(C(=O)c2ccc(N3CCC(C4CCN(C(=O)[C@](O)(c5ccccc5)C(F)(F)F)CC4)CC3)cc2Cl)C1` (stereo partly drawn) [Example E-29, (2R)-3-(1′-{3-chloro-4-[(3-ethylpyrrolidin-1-yl)carbonyl]phenyl}-4,4′-bipiperidin-1-yl)-1,1,1-trifluoro-3-oxo-2-phenylpropan-2-ol] as the molecule, how does the “LXR alpha IP (nM)” value [1] read?
Answer: NO IP

Question: And the Emax [1, 3]?
Answer: 13%

Question: And the EC50 [2]?
Answer: 383 nM

Question: And the Emax [2, 3]?
Answer: 63%

Question: Which results are given for `O=C(c1ccc(N2CCC(C3CCN(C(=O)[C@](O)(c4ccccc4)C(F)(F)F)CC3)CC2)cc1Cl)N1CCCC1C(F)(F)F` (stereo partly drawn) [Example E-21, (2R)-3-[1′-(3-chloro-4-{[2-(trifluoromethyl)pyrrolidin-1-yl]carbonyl}phenyl)-4,4′-bipiperidin-1-yl]-1,1,1-trifluoro-3-oxo-2-phenylpropan-2-ol]?
Answer: LXR alpha IP (nM) [1]: NO IP; Emax [1, 3]: 13%; EC50 [2]: 95 nM; Emax [2, 3]: 62%

Question: For `CC(C)N(C(=O)c1ccc(N2CCC(C3CCN(C(=O)C(O)(C(C)C)C(F)(F)F)CC3)CC2)cc1Cl)C(C)C` (stereo not drawn) [Example E-11, 2-chloro-4-{1′-[2-hydroxy-3-methyl-2-(trifluoromethyl)butanoyl]-4,4′-bipiperidin-1-yl}-N,N-bis(1-methylethyl)benzamide], which EC50 [1] is on record?
Answer: 1070 nM

Question: What about the Emax [1, 3] of the same molecule?
Answer: 1%

Question: And the EC50 [2]?
Answer: 156 nM

Question: What about the Emax [2, 3] of the same molecule?
Answer: 33%

Question: Which EC50 [1] does the source give for `CC(C)[C@@](O)(C(=O)N1CCC(C2CCN(c3ccc(C(=O)N(C)C)c(Cl)c3)CC2)CC1)C(F)(F)F` (single isomer, unassigned) [Example A-2] here?
Answer: 1030 nM

Question: And the Emax [1, 3]?
Answer: 41%

Question: And the EC50 [2]?
Answer: 35 nM

Question: What about the Emax [2, 3] of the same molecule?
Answer: 100%

Question: How did the EC50 [1] turn out when `CN(C)C(=O)c1ccc(N2CCC(C3CCN(C(=O)C(F)(F)c4cccc(F)c4)CC3)CC2)cc1Cl` [Example A-69, 2-chloro-4-{1′-[difluoro(3-fluorophenyl)acetyl]-4,4′-bipiperidin-1-yl}-N,N-dimethylbenzamide] was run?
Answer: 1770 nM

Question: And the Emax [1, 3]?
Answer: 51%

Question: What about the EC50 [2] of the same molecule?
Answer: 86 nM

Question: And the Emax [2, 3]?
Answer: 113%

Question: `CC(=O)Oc1ccc(C(C)(C)C(=O)N2CCC(C3CCN(c4ccc(C(=O)N(C)C)c(Cl)c4)CC3)CC2)cc1` [Example A-59, 4-(2-{1′-[3-chloro-4-(dimethylcarbamoyl)phenyl]-4,4′-bipiperidin-1-yl}-1,1-dimethyl-2-oxoethyl)phenyl acetate] was tested. Which EC50 [1] did it give?
Answer: 2630 nM

Question: And the Emax [1, 3]?
Answer: 54%

Question: And the EC50 [2]?
Answer: 91 nM

Question: What about the Emax [2, 3] of the same molecule?
Answer: 106%

Question: What does the source list for `CN(C)C(=O)c1ccc(N2CCC(C3CCN(C(=O)c4ccccc4C(F)(F)F)CC3)CC2)cc1Cl` [Example A-21, 2-chloro-N,N-dimethyl-4-(1′-{[2-(trifluoromethyl)phenyl]carbonyl}-4,4′-bipiperidin-1-yl)benzamide]?
Answer: EC50 [1]: 3000 nM; Emax [1, 3]: 37%; EC50 [2]: 243 nM; Emax [2, 3]: 95%

Question: `CN(C)C(=O)c1ccc(N2CCC(C3CCN(C(=O)C4(c5cc(F)cc(F)c5)CCCC4)CC3)CC2)cc1Cl` [Example A-79, 2-chloro-4-(1′-{[1-(3,5-difluorophenyl)cyclopentyl]carbonyl}-4,4′-bipiperidin-1-yl)-N,N-dimethylbenzamide] was tested. Which EC50 [1] did it give?
Answer: 2540 nM

Question: And the Emax [1, 3]?
Answer: 35%

Question: What about the EC50 [2] of the same molecule?
Answer: 216 nM

Question: What about the Emax [2, 3] of the same molecule?
Answer: 125%

Question: Which results are given for `CC(C)C(O)(C(=O)N1CCC(C2CCN(c3ccc(C(=O)N4CCOC[C@H]4C)c(Cl)c3)CC2)CC1)C(F)(F)F` (stereo partly drawn) [Example E-10, 2-{[1′-(3-chloro-4-{[(3R)-3-methylmorpholin-4-yl]carbonyl}phenyl)-4,4′-bipiperidin-1-yl]carbonyl}-1,1,1-trifluoro-3-methylbutan-2-ol]?
Answer: EC50 [1]: 1260 nM; Emax [1, 3]: 32%; EC50 [2]: 219 nM; Emax [2, 3]: 72%

Question: Which results are given for `CN(C)C(=O)c1ccc(N2CCC(C3CCN(S(=O)(=O)c4ccccc4Cl)CC3)CC2)cc1Cl` [Example A-103, 2-chloro-4-{1′-[(2-chlorophenyl)sulfonyl]-4,4′-bipiperidin-1-yl}-N,N-dimethylbenzamide]?
Answer: EC50 [1]: 2190 nM; Emax [1, 3]: 54%; EC50 [2]: 16 nM; Emax [2, 3]: 122%

Question: What does the source list for `CN(C)C(=O)c1ccc(N2CCC(C3CCN(C(=O)C(O)(c4cccc(F)c4)C(F)(F)F)CC3)CC2)cc1Cl` (stereo not drawn) [Example A-95, 2-chloro-N,N-dimethyl-4-{1′-[3,3,3-trifluoro-2-(3-fluorophenyl)-2-hydroxypropanoyl]-4,4′-bipiperidin-1-yl}benzamide]?
Answer: EC50 [1]: 1330 nM; Emax [1, 3]: 38%; EC50 [2]: 84 nM; Emax [2, 3]: 116%

Question: How did the EC50 [1] turn out when `O=C(c1ccc(N2CCC(C3CCN(C(=O)[C@](O)(c4ccccc4)C(F)(F)C(F)(F)F)CC3)CC2)cc1Cl)N1CCCC1` [Example E-17] was run?
Answer: 760 nM

Question: What about the Emax [1, 3] of the same molecule?
Answer: 33%

Question: And the EC50 [2]?
Answer: 105 nM

Question: What about the Emax [2, 3] of the same molecule?
Answer: 130%

Question: What does the source list for `CN(C)C(=O)c1ccc(N2CCC(C3CCN(C(=O)C(O)(c4ccccc4)C(F)(F)F)CC3)CC2)nc1Cl` (stereo in doubt) [Example B-9, 2-chloro-N,N-dimethyl-6-{1′-[(2R)-3,3,3-trifluoro-2-hydroxy-2-phenylpropanoyl]-4,4′-bipiperidin-1-yl}pyridine-3-carboxamide]?
Answer: EC50 [1]: 1970 nM; Emax [1, 3]: 31%; EC50 [2]: 48 nM; Emax [2, 3]: 104%

Question: For `CN(C)C(=O)c1ccc(N2CCC(C3CCN(C(=O)C(O)(c4ccccc4)C(F)(F)C(F)(F)C(F)(F)F)CC3)CC2)cc1Cl` (stereo not drawn) [Example A-55, 2-chloro-4-[1′-(3,3,4,4,5,5,5-heptafluoro-2-hydroxy-2-phenylpentanoyl)-4,4′-bipiperidin-1-yl]-N,N-dimethylbenzamide], which EC50 [1] is on record?
Answer: 1340 nM

Question: What about the “LXR alpha act @ max dose (%)” value [1, 3] of the same molecule?
Answer: 25%

Question: What about the EC50 [2] of the same molecule?
Answer: 408 nM

Question: What about the “LXR beta act @ max dose (%)” value [2, 3] of the same molecule?
Answer: 93%

Question: With `CCCN(C)C(=O)c1ccc(N2CCC(C3CCN(C(=O)[C@](O)(c4ccccc4)C(F)(F)F)CC3)CC2)cc1Cl` [Example E-61, 2-chloro-N-methyl-N-propyl-4-{1′-[(2R)-3,3,3-trifluoro-2-hydroxy-2-phenylpropanoyl]-4,4′-bipiperidin-1-yl}benzamide] as the molecule, how does the EC50 [1] read?
Answer: 1280 nM

Question: And the Emax [1, 3]?
Answer: 29%

Question: What about the EC50 [2] of the same molecule?
Answer: 100 nM

Question: And the Emax [2, 3]?
Answer: 94%

Question: For `CN(C)C(=O)c1ccc(N2CCC(C3CCN(C(=O)OC(C)(C)C)CC3)CC2)cc1Cl` [Example A-1, tert-Butyl 1′-(3-chloro-4-(dimethylcarbamoyl)phenyl)-[4,4′-bipiperidine]-1-carboxylate], which EC50 [1] is on record?
Answer: 748 nM

Question: What about the Emax [1, 3] of the same molecule?
Answer: 76%

Question: What about the EC50 [2] of the same molecule?
Answer: 16 nM

Question: What about the Emax [2, 3] of the same molecule?
Answer: 106%

Question: Which “LXR alpha IP (nM)” value [1] does the source give for `CN(C)C(=O)c1ccc(N2CCC(C3CCN(C(=O)C(O)(c4ccccc4)C(F)(F)F)CC3)CC2)nc1Cl` (stereo not drawn) [Example B-13, 2-chloro-N,N-dimethyl-6-[1′-(3,3,3-trifluoro-2-hydroxy-2-phenylpropanoyl)-4,4′-bipiperidin-1-yl]pyridine-3-carboxamide] here?
Answer: NO IP

Question: And the Emax [1, 3]?
Answer: 28%

Question: And the EC50 [2]?
Answer: 291 nM

Question: And the Emax [2, 3]?
Answer: 95%

Question: How did the EC50 [1] turn out when `O=C(c1ccc(N2CCC(C3CCN(C(=O)[C@](O)(c4ccccc4)C(F)(F)F)CC3)CC2)cc1Cl)N1CCC[C@H]1CO` [Example E-63, (2R)-3-[1′-(3-chloro-4-{[(2S)-2-(hydroxymethyl)pyrrolidin-1-yl]carbonyl}phenyl)-4,4′-bipiperidin-1-yl]-1,1,1-trifluoro-3-oxo-2-phenylpropan-2-ol] was run?
Answer: 359 nM

Question: What about the Emax [1, 3] of the same molecule?
Answer: 51%

Question: And the EC50 [2]?
Answer: 21 nM

Question: And the Emax [2, 3]?
Answer: 86%

Question: For `CS(=O)(=O)c1ccc(N2CCC(C3CCN(C(=O)c4c(F)cccc4F)CC3)CC2)cc1Cl` [Example D-6, 1-[3-chloro-4-(methylsulfonyl)phenyl]-1′-[(2,6-difluorophenyl)carbonyl]-4,4′-bipiperidine], which EC50 [1] is on record?
Answer: 772 nM

Question: And the Emax [1, 3]?
Answer: 18%

Question: What about the EC50 [2] of the same molecule?
Answer: 380 nM

Question: What about the Emax [2, 3] of the same molecule?
Answer: 49%

Question: For `CN(C)C(=O)c1ccc(N2CCC(C3CCN(C(=O)C(O)(CCc4ccccc4)C(F)(F)F)CC3)CC2)cc1Cl` (stereo not drawn) [Example A-49, 2-chloro-4-{1′-[2-hydroxy-4-phenyl-2-(trifluoromethyl)butanoyl]-4,4′-bipiperidin-1-yl}-N,N-dimethylbenzamide], which “LXR alpha IP (nM)” value [1] is on record?
Answer: NO IP

Question: What about the Emax [1, 3] of the same molecule?
Answer: 16%

Question: And the EC50 [2]?
Answer: 429 nM

Question: And the Emax [2, 3]?
Answer: 32%

Question: How did the EC50 [1] turn out when `CN(C)C(=O)c1c(Cl)cc(N2CCC(C3CCN(C(=O)[C@](O)(c4ccccc4)C(F)(F)F)CC3)CC2)cc1Cl` [Example A-33, 2,6-dichloro-N,N-dimethyl-4-{1′-[(2R)-3,3,3-trifluoro-2-hydroxy-2-phenylpropanoyl]-4,4′-bipiperidin-1-yl}benzamide] was run?
Answer: 483 nM

Question: What about the Emax [1, 3] of the same molecule?
Answer: 25%

Question: What about the EC50 [2] of the same molecule?
Answer: 48 nM

Question: And the Emax [2, 3]?
Answer: 86%

— patent US20180305332A1, “Bispiperidinyl Derivatives as Liver X Receptor Beta Agonists, Compositions, and Their Use” (Merck Sharp & Dohme Corp., priority 2015, published 2018)
